Data published in patent US11980687B2, “Liposomal compounds and methods of use thereof” (University of Kentucky Research Foundation, priority 2019, dated 2024).

Assays:
[1] = molecular target: IL-1β (Homo sapiens, UniProt P01584); details: cited from earlier work
[2] = test system: Ly6C^hi monocytes; experiment: Flow cytometry of Ly6C^hi monocytes in heart and blood post-MI; format: in vivo, mice; details: first day after injury; effect disappears at later timepoints
Protocol: (§1) Cell phenotype, in addition to gene analyses, of monocytes and neutrophils were investigated in peripheral blood as previously described ([…] et al. 2018). Briefly, blood was collected in tubes with a 1:5 ratio of ethylene diaminetetraacetic acid (EDTA)/citrate-theophylline-adenosinedipyridamole (CTAD) on days 1, 3 and 7 post-MI. Whole blood was centrifuged for 5 minutes at 500×g, and the plasma layer was separated and reserved at -80° C. To lyse red blood cells, the residual cell pellet was incubated with 0.5 ml of diluted red blood lysing buffer (BD pharm lyse) for 10 minutes with mild agitation. To end the lysis process, 0.5 ml of staining buffer (5% goat serum, 0.05% sodium azide in phosphate-buffered saline) was added to the suspension of red blood cell lysed blood. Then, the suspension was centrifuged at 400×g for 5 minutes, and the supernatant was removed. This step was repeated if the red blood cells were still detectable in the cell pellet. White blood cell pellet was washed twice in staining buffer to remove any residual lysis buffer. After supernatant removal, the pellet was resuspended in a pre-determined volume of staining buffer and counted. […] Following incubation, cells were washed twice with staining buffer and analyzed by an LSR II (Becton Dickinson) in the University of Kentucky Flow Cytometry Core. […]

[3] = test system: macrophages; experiment: Immunohistochemistry of macrophages in the peri-infarct zone; format: in vivo, mice
Protocol: Heart sections (N=4/treatment group) were prepared as described in the previous section. Immunostaining of heart sections was performed on deparaffinized and rehydrated sections as previously described (Al-Darraji, Haydar et al. 2018). Briefly, after deparaffinization and rehydration, sections were incubated with primary antibodies: rabbit anti-mouse IBA1 (Wako), goat anti-mouse CD206 (R and D Systems), and goat anti-mouse IL-1β (R & D Systems) overnight at 4° C., then washed and incubated with secondary antibodies conjugated to Alexa Fluor 488 or 594 (Invitrogen), followed by incubation with DAPI. In the peri-infarct area, 10-15 adjacent zones per section (1-2 sections/animal) were imaged at 40× magnification utilizing Nikon Confocal Microscope A1 in the University of Kentucky Confocal Microscopy facility. Nucleated cells that were antibody-positive were quantified using Cell Counter plugin for Nikon NIS-Elements (version AR 3.2). Findings are presented as total number of positive cells per high power field in the area of interest.

[4] = test system: macrophages; experiment: Flow cytometry of macrophage phenotypes in the injured heart; format: in vivo, mice; details: heart post-MI, relative to Lazm
Protocol: Phenotypic cell analysis of macrophages and neutrophils and gene expression analysis was conducted in the heart as previously described ([…] et al. 2018). Briefly, mice were sacrificed, and hearts were rapidly isolated and placed in ice cold PBS (VWR International). Using a razor blade, the heart was minced manually. After mincing, tissue was incubated with a Collagenase B (Roche, Indianapolis, IN) and Dispase II (Roche, Indianapolis, IN) mixture at 37° C. for 30 minutes, with gentle agitation every 5-10 minutes. Tissue digestion ceased using cold staining buffer and the suspension was placed on ice and filtered using a 70 μm cell strainer, followed by centrifugation at 400×g for 5 mins at 4° C. Supernatant was discarded and the pellet was resuspended in 0.3 ml of staining buffer. Individual heart cells were divided into approximately three equal portions depending on cell counting with 10^6 live (trypan blue-negative) cells in each. Two portions were used for cell staining while the remainder was incubated with cell lysis buffer (Life technologies) using multiple aggressive agitations, for 10 minutes and reserved at -80° C. for further gene expression analysis. […] Cells were then washed twice with staining buffer and analyzed by an LSR II (Becton Dickinson) in the University of Kentucky Flow Cytometry Core. […]

[5] = test system: infarcted heart; experiment: Masson's trichrome scar size 30 days post-MI; format: in vivo, mice; details: compared to controls
Protocol: Histological analysis was performed on deparaffinized and rehydrated sections as previously described (Al-Darraji, Haydar et al. 2018). Briefly, 30 day post-MI mice (N=6-10/treatment group) were sacrificed under isoflurane anesthesia and hearts were isolated. Hearts were perfused with PBS (VWR International) then by 10% buffered formalin (VWR International) at 75 mmHg. Perfused hearts were placed in 10% neutral buffered formalin (VWR) overnight at room temperature, then sectioned into 2-mm cross-sections starting at the level of coronary ligation then imbedded in paraffin and sectioned into 4-μm sections. Sections were stained with Masson's trichrome to evaluate scar size as previously described (Al-Darraji, Haydar et al. 2018). Digital images of stained sections were acquired, and areas of interest were assessed using NIH ImageJ […] software. The LV area, LV cavity area, and infarct area were measured as previously described (Al-Darraji, Haydar et al. 2018). Scar size was presented as a percentage of the total LV […].

[6] = test system: pro- and anti-inflammatory cytokine expression; experiment: RT-PCR of inflammatory and reparative gene expression in heart and blood cells post-MI; format: in vivo, mice
Protocol: PureLink RNA Mini Kit (ThermoFisher Scientific) was used to isolate total mRNA from heart and blood cells according to manufacturer protocol. Isolated RNA was quantified using NanoDrop 8000 spectrophotometer (Thermofisher). Next, cDNA was generated using SuperScript VILO cDNA synthesis kit (Invitrogen). Using a QuantaStudio 7 Flex real-time thermocycler (Applied Biosystems by life technology), Reverse Transcription-Polymerase Chain Reaction (RT-PCR) was performed to measure the mRNA expression of markers identifying: inducible nitric oxide synthase (iNOS), tumor necrosis factor alpha (TNF-α), monocyte chemotactic protein-1 (MCP-1), transforming growth factor beta (TGF-β), interleukin-1 beta (IL-1β), interleukin-6 (IL-6), interleukin-4 (IL-4), chitinase-like3 Chil3 (YM1), interleukin-10 (IL10), arginase-1 (ARG-1), and Peroxisome proliferator-activated receptor gamma (PPARg). We used the comparative Ct method for relative estimation of mRNA expression which was normalized to 18s (a housekeeping gene). […]

[7] = cited from earlier work
[8] = test system: neutrophils; experiment: Flow cytometry of neutrophils and N1 neutrophils in heart and blood post-MI; format: in vivo, mice; details: day 1 post-MI
Protocol: as §1

[9] = test system: heart; experiment: Hemodynamic and ECG effects after retro-orbital administration; format: in vivo, mice; details: 40 mg/kg retro-orbital
Protocol: Mice were anaesthetized using 1%-3% isoflurane during Echocardiography to maintain heart rate of 450-500 BPM during imaging. A Vevo 3100 system coupled with a 15-7-MHz linear broadband transducer and a 12-5-MHz phased array transducer was used to perform Echocardiogram analyses. Heart function was examined at baseline (before cardiac surgery) then one-week and 4 weeks post-MI. During acquisition, a heating pad was used to preserve the body temperature at 37° C.; the temperature was continuously assessed by a rectal temperature probe. Using modified parasternal long-axis and short-axis, two-dimensional and Doppler echocardiography was used to assess the LV function and volume in M-mode. Tracings at the mid-papillary level to investigate the systolic and diastolic parameters and Teichholz formula were used to quantify LV function. Echocardiography imaging and analyses were carried out by a blinded investigator. Mice were anesthetized with 2% isoflurane, then placed on the ECG platform. Electrodes were inserted subcutaneously on the two front paws and the left rear paw followed by ECG recording for 2-3 minutes. Once the recording was completed, the data were analyzed using Chart software (PhysioTel).

[10] = test system: cardiac cells; experiment: TUNEL and caspase-3 staining of apoptosis in the peri-infarct region; format: in vivo, mice; details: peri-infarct regions, 3 days post-MI, compared to vehicle control
Protocol: Cell apoptosis was examined on deparaffinized and rehydrated sections from mice (N=4/treatment group) sacrificed at day 3, as previously described ([…] et al. 2018). TUNEL and caspase-3 staining was performed in the Biospecimen Procurement and Translational Pathology Shared Resource Facility (BPTP SRF) at the University of Kentucky. Nucleated cells that stained positive were estimated. Quantification was performed using Cell Counter plugin for ImageJ (version 1.51d). Findings are presented as total positive cells per high power field in the peri-infract region. All measurements were obtained in the peri-infarcted areas only and analyzed by blinded observer.

Compound | cardiovascular events reoccurrence [1] | Ly6C^hi (pro-inflammatory) monocytes in the heart [2] | reparative macrophages (CD206+) in peri-infarct zone ([3]; day 3 post-MI, compared to control groups) | expression of IL-1β in macrophages (IBA1+IL-1β+) ([3]; peri-infarct zones, 3 days post-MI, compared to controls) | immunomodulatory changes of heart macrophages (FACS) [4] | scar size (percentage of LV area) [5] | mortality during drug administration (40 mg/kg IV, post-MI) | survival (35 days post-MI, vs vehicle-treated mice) | expression of anti-inflammatory cytokines and reparative macrophage markers (TGF-β, IL-10, IL-4, ARG, Fizz1, PPARγ, YM1) in cardiac tissue ([6]; consistent effects up to day 7) | mRNA levels of iNOS and pro-inflammatory cytokines (MCP-1, TNF-α, IL-6, IL-1β) in cardiac tissue ([6]; particularly days 1 and 3 post-infarct) | post-MI cardiac recovery ([7]; 160 mg/kg/day, orally, initiated 3 days pre-MI) | neutrophil counts ([7]; first study, mice receiving AZM) | neutrophil counts in the heart [8] | QT interval [9] | RR ([9]; compared with baseline) | cardiac output ([9]; compared with baseline) | ejection fraction ([9]; compared with baseline) | heart rate ([9]; compared with baseline) | TUNEL positive cells (late apoptosis) [10] | caspase-3 positive cells (early apoptosis) [10]
canakinumab: monoclonal antibody targeting IL-1β | significantly decreases cardiovascular events reoccurrence | – | – | – | – | – | – | – | – | – | – | – | – | – | – | – | – | – | – | –
CC[C@H]1OC(=O)[C@H](C)[C@@H](O[C@H]2C[C@@](C)(OC)[C@@H](O)[C@H](C)O2)[C@H](C)[C@@H](O[C@@H]2O[C@H](C)C[C@H](N(C)C)[C@H]2O)[C@](C)(O)C[C@@H](C)CN(C)[C@H](C)[C@@H](O)[C@]1(C)O [free AZM, azithromycin] | – | significantly decrease in the first day after injury | significant increase | marked reduction | Less powerful immunomodulatory changes | significant reduction | occurs during the drug administration due to severe changes in cardiac conduction and hemodynamic parameters | marked improvement in survival | significantly upregulated | substantially downregulated | enhances post-MI cardiac recovery | substantially decreased | did not see significant changes | prolonged | remarkably reduces | remarkably reduces | remarkably reduces | remarkably reduces | remarkable reduction | remarkable reduction
